Test results taken from the RepoRT retention time repository.

Test: A: acetonitrile + 0.1% formic acid + 10 mM ammonium formate; B: 5% water + 95% acetonitrile + 0.1% formic acid + 10 mM ammonium formate; gradient (min/%B) 0/10 2/10 22/100 27/100 27.1/10
Details: stereoisomer not certain

For `NC(=O)Cc1c[nH]c2ccccc12` [Indole-3-acetamide], the LC retention time was 0.475 min.
In the case of `CC(=O)CCC(=O)O` [Levulinic acid], the LC retention time is reported as 0.421 min.
In the case of `CC(C)C[C@H](NC(=O)CN)C(=O)O` [Glycyl-L-leucine], the LC retention time is reported as 5.81 min.
In the case of `COC(=O)C1=C(C)NC(C)=C(C(=O)OC)C1c1ccccc1[N+](=O)[O-]` [Nifedipine], the LC retention time is reported as 0.418 min.
Work on `Cc1ncc(C[n+]2csc(CCOP(=O)([O-])O)c2C)c(N)n1` [Thiamine monophosphate] yielded an LC retention time of 8.44 min.
With `CCC(=O)OCC(=O)C1(OC(=O)CC)C(C)CC2C3CCC4=CC(=O)C=CC4(C)C3(Cl)C(O)CC21C` (stereo not drawn) [Beclometasone dipropionate] the LC retention time was 0.416 min.
In the case of `Cc1ccc(S(=O)(=O)NC(=O)NN2CC3CCCC3C2)cc1` (stereo not drawn) [Gliclazide], the LC retention time is reported as 0.423 min.
In the case of `CC(C)(N)C(=O)O` [2-Aminoisobutyric acid], the LC retention time is reported as 5.89 min.
`O=P(O)(O)OC(CO)CO` [beta-Glycerophosphoric acid] gave an LC retention time of 6.56 min.
Molecule `CCC(C)C(=O)NCC(=O)O` (stereo not drawn) [2-Methylbutyrylglycine] has an LC retention time of 1.55 min.
`OCCc1c[nH]c2ccccc12` [Indole-3-ethanol] gave an LC retention time of 1.31 min.
In the case of `COc1cc(C=O)ccc1O` [Vanillin], the LC retention time is reported as 0.435 min.
`CC1(C)SC2C(NC(=O)C(N)c3ccccc3)C(=O)N2C1C(=O)O` (stereo not drawn) [Ampicillin] showed an LC retention time of 4.86 min.
Molecule `COc1ccc2nc(S(=O)Cc3ncc(C)c(OC)c3C)[nH]c2c1` (stereo not drawn) [Omeprazole] has an LC retention time of 0.484 min.
Work on `CC12CCC(=O)C=C1C=CC1C2CCC2(C)C1CCC21CCC(=O)O1` (stereo not drawn) [Canrenone] yielded an LC retention time of 0.429 min.
With `O=C(O)C(=O)Cc1c[nH]c2ccccc12` [Indole-3-pyruvic acid] the LC retention time was 0.455 min.
In the case of `Nc1ccn(C2OC(COP(=O)(O)O)C(O)C2O)c(=O)n1` (stereo not drawn) [Cytidine 5'-monophosphate], the LC retention time is reported as 7.4 min.
For `NC(=O)NC1NC(=O)NC1=O` (stereo not drawn) [Allantoin], the LC retention time was 3.1 min.
In the case of `OCC1OC(OC2C(CO)OC(OC3C(CO)OC(O)C(O)C3O)C(O)C2O)C(O)C(O)C1O` (stereo not drawn) [Maltotriose], the LC retention time is reported as 7.44 min.
Molecule `CC(C)Oc1ccc2c(=O)c(-c3ccccc3)coc2c1` [Ipriflavone] has an LC retention time of 0.767 min.
`CC(=O)N[C@@H](C)C(=O)O` [N-Acetyl-L-alanine] showed an LC retention time of 4.36 min.
Molecule `CCN(CC)c1ccc2c(-c3ccccc3C(=O)[O-])c3ccc(=[N+](CC)CC)cc-3oc2c1` [Rhodamine B] has an LC retention time of 0.776 min.
With `CCC(C)C(=O)OC1CC(C)C=C2C=CC(C)C(CCC3CC(O)CC(=O)O3)C21` (stereo not drawn) [Lovastatin] the LC retention time was 0.419 min.
For `CC(=O)Oc1cc(C)c(OC(C)=O)c2ccccc12` [Vitamin K4], the LC retention time was 0.412 min.
Molecule `Nc1nc2ncc(CNc3ccc(C(=O)NC(CCC(=O)O)C(=O)O)cc3)nc2c(=O)[nH]1` (stereo not drawn) [Folic acid] has an LC retention time of 5.87 min.
In the case of `NC(=O)c1cccnc1` [Niacinamide], the LC retention time is reported as 0.678 min.
With `CC=C(C)C(=O)NCC(=O)O` [N-Tiglylglycine] the LC retention time was 1.97 min.
With `NCCc1ccc(O)c(O)c1` [Dopamine] the LC retention time was 4.22 min.
`C=C1CCC(O)CC1=CC=C1CCCC2(C)C1CCC2C(C)CCCC(C)C` (stereo not drawn) [Vitamin D3] showed an LC retention time of 0.407 min.
For `Nc1ccn(C2CC(O)C(CO)O2)c(=O)n1` (stereo not drawn) [2'-Deoxycytidine], the LC retention time was 3.51 min.
`Cc1c(OCC(F)(F)F)ccnc1CS(=O)c1nc2ccccc2[nH]1` (stereo not drawn) [Lansoprazole] showed an LC retention time of 0.475 min.
Molecule `COc1ccc2[nH]cc(CC(N)C(=O)O)c2c1` (racemic) [5-Methoxy-DL-tryptophan] has an LC retention time of 4.49 min.
With `Cc1cc2nc3c(=O)[nH]c(=O)nc-3n(CC(O)C(O)C(O)COP(=O)(O)O)c2cc1C` (stereo not drawn) [Riboflavin 5'-Monophosphate] the LC retention time was 6.38 min.
`N#CC(OC1OC(COC2OC(CO)C(O)C(O)C2O)C(O)C(O)C1O)c1ccccc1` (stereo not drawn) [Amygdalin] showed an LC retention time of 4.24 min.
Work on `Nc1ccccc1C(=O)CC(N)C(=O)O` [L-Kynurenine] yielded an LC retention time of 4.67 min.
`CN(C)C(=N)N=C(N)N` [Metformin] gave an LC retention time of 3.67 min.
Work on `Cc1cc2nc3c(=O)[nH]c(=O)nc-3n(CC(O)C(O)C(O)CO)c2cc1C` (stereo not drawn) [Riboflavin] yielded an LC retention time of 3.65 min.
`NCCc1ccc(O)cc1` [Tyramine] gave an LC retention time of 3.19 min.
With `COc1ccc(Cl)cc1C(=O)NCCc1ccc(S(=O)(=O)NC(=O)NC2CCCCC2)cc1` [Glibenclamide] the LC retention time was 0.446 min.
For `COC(=O)C1=CCCN(C)C1` [Arecoline], the LC retention time was 2.06 min.
Work on `NC(=O)N1c2ccccc2C=Cc2ccccc21` [Carbamazepine] yielded an LC retention time of 0.469 min.
With `CCc1cccc2c3c([nH]c12)C(CC)(CC(=O)O)OCC3` (stereo not drawn) [Etodolac] the LC retention time was 0.453 min.
`NCCc1c[nH]c2ccc(O)cc12` [Serotonin] gave an LC retention time of 3.29 min.
`O=C(O)c1ccccc1C(=O)O` [Phthalic acid] gave an LC retention time of 0.963 min.
For `O=C(C=Cc1ccccc1)OCc1ccccc1` [Benzyl cinnamate], the LC retention time was 0.413 min.
For `CCCCOC(=O)CCCCCCCCC(=O)OCCCC` [Dibutyl sebacate], the LC retention time was 0.404 min.
Work on `CC(C)NCC(O)COc1cccc2ccccc12` (racemic) [(+/-)-Propranolol] yielded an LC retention time of 1.21 min.
Work on `O=P(O)(O)OCC1OC(O)C(O)C1O` [D-Ribose 5-phosphate] yielded an LC retention time of 7.12 min.
With `CC(NC(C)(C)C)C(=O)c1cccc(Cl)c1` (stereo not drawn) [Bupropion] the LC retention time was 0.963 min.
With `N[C@@H](Cc1ccc(O)c([N+](=O)[O-])c1)C(=O)O` [3-Nitro-L- tyrosine] the LC retention time was 4.76 min.
With `NCCCC[C@H](N)C(=O)O` [L-Lysine] the LC retention time was 7.67 min.
`CC(CS)C(=O)N1CCCC1C(=O)O` (stereo not drawn) [Captopril] gave an LC retention time of 1.1 min.
Molecule `C[C@@H](O)[C@H](N)C(=O)O` [L-Threonine] has an LC retention time of 6.22 min.
With `N[C@@H](CCO)C(=O)O` [L-Homoserine] the LC retention time was 6.32 min.
In the case of `Cc1c[nH]c(=O)[nH]c1=O` [Thymine], the LC retention time is reported as 0.793 min.
Molecule `CN(C)CCOC(c1ccccc1)c1ccccc1` [Diphenhydramine] has an LC retention time of 0.944 min.
In the case of `COc1cc(/C=C/C(=O)O)ccc1O` [Ferulic acid], the LC retention time is reported as 0.564 min.
`CCCC(NC(C)C(=O)N1C(C(=O)O)CC2CCCCC21)C(=O)OCC` (stereo not drawn) [Perindopril erbumine] gave an LC retention time of 0.553 min.
In the case of `CC(=O)NCCCC(=O)O` [4-(Acetylamino)butanoic acid], the LC retention time is reported as 1.23 min.
With `CCC1=C(C)CN(C(=O)NCCc2ccc(S(=O)(=O)NC(=O)NC3CCC(C)CC3)cc2)C1=O` (stereo not drawn) [Glimepiride] the LC retention time was 0.44 min.
With `CN(C)CCC=C1c2ccccc2CCc2ccccc21` [Amitriptyline] the LC retention time was 0.977 min.
With `NC(Cc1cccc(O)c1)C(=O)O` (racemic) [DL-m-Tyrosine] the LC retention time was 5.38 min.
With `Cc1cccc(Nc2ccccc2C(=O)O)c1C` [Mefenamic acid] the LC retention time was 0.437 min.
`N[C@H]1C(O)O[C@H](COP(=O)(O)O)[C@@H](O)[C@@H]1O` (stereo partly drawn) [D-Glucosamine 6-phosphate] showed an LC retention time of 8.21 min.
In the case of `Cn1c(=O)c2c(ncn2C)n(C)c1=O` [Caffeine], the LC retention time is reported as 0.477 min.
Work on `N[C@H](CO)Cc1cnc[nH]1` [L-Histidinol] yielded an LC retention time of 7.05 min.
Work on `CCOC(=O)c1cncn1C(C)c1ccccc1` (stereo not drawn) [Etomidate] yielded an LC retention time of 0.602 min.
Molecule `C=C(C)C1Cc2c(ccc3c2OC2COc4cc(OC)c(OC)cc4C2C3=O)O1` (stereo not drawn) [Rotenone] has an LC retention time of 0.416 min.
